Assay results as given in the METLIN SMRT retention time set (Domingo-Almenara et al. 2019).

Test: gradient 5% acetonitrile 3 min, to 50% in 2 min, to 85% in 15 min, held 3 min, 100 µL/min
Details: column: Zorbax Extend-C18 2.1 x 50 mm; eluents: water / acetonitrile, 0.1% formic acid
Outline: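 Retention time was recorded from adduct peaks, which were picked computationally and each inspected manually. Pure standards ran in mixtures of ~100 molecules on HPLC coupled to a quadrupole time-of-flight mass spectrometer, in positive and negative ionization mode, through a Zorbax Extend-C18 column (2.1 × 50 mm, 1.8 μm) at 100 μL/min. Eluents were water and acetonitrile, each with 0.1% formic acid.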

Compound	RP-LC retention time [s]
COc1cc(-c2nc(-c3ccc4c(c3)oc(=O)n4C)no2)cc(OC)c1OC	985
Cc1ccc(-n2c(=O)n(CC(=O)NCCN3CCOCC3)c3cccnc32)cc1	596
O=C(Nc1cccc([N+](=O)[O-])c1)N1CCN(c2ccccc2)CC1	829
CCn1ccc(C(=O)NCC2Cn3cccc3C(=O)N2CC(C)C)n1 (centres undefined)	680
c1ccc(OCc2nc(-c3ccc(-n4ccnc4)nc3)no2)cc1	689
Cc1cc(C)n(-c2ccc(N3CCC(C(=O)NCc4ccc5c(c4)OCO5)CC3)nn2)n1	642
CC(C)c1noc(C2CCCN(S(C)(=O)=O)CCC(=O)NCC2)n1 (centres undefined)	656
CCc1ccc2[nH]c3c(c(=O)c2c1)CN(CC(=O)NCc1ccccc1Cl)CC3	633
CCN(C(=O)Cc1ccccc1)c1nc(-c2ccccc2)cs1	1270
COC(=O)c1ccccc1NC(=O)CCc1c(-c2ccc(F)cc2)nc2ccccn12	724
CCCNC(=O)N1CCc2nc(-c3ccccc3)ncc2C1	751
O=c1n(Cc2cccc(Br)c2)nc2c(S(=O)(=O)N3CCc4ccccc4C3)cccn12	1030
COCCN1C(=O)CCc2cc(NC(=O)c3ccco3)ccc21	654
COCC(=O)NCC12CCCC=C1NC(=O)CC2 (centres undefined)	605
CCCn1c(=O)sc2cc(S(=O)(=O)N3CCC(C(=O)Nc4ccc(Cl)cc4)CC3)ccc21	1040
CC1Oc2ccc(-c3csc(NC(=O)c4ccccc4Cl)n3)cc2N(C)C1=O (centres undefined)	968
COc1ccc(CNC(=O)c2sc(-c3cn(C(C)C)c4ncccc34)nc2C)cc1	1030
CCCCN1CCN(S(=O)(=O)c2cc(-c3nnc(C(C)C)o3)co2)CC1	652
O=C(NC1CCCCC1)c1nc(-c2cn(-c3ccc(Cl)cc3)nn2)no1	1030
O=C([C@@H]1C[C@H](F)CN1S(=O)(=O)Cc1cccc(Cl)c1)N1CCc2ccccc2C1	1000
Cc1ccc(-c2cn3ccn(-c4ccc(F)cc4)c(=O)c3n2)cc1	827
COC[C@@H]1CN(C(=O)c2cc(Cl)ccc2F)C[C@H]1C(N)=O	611
Cc1nnc(-c2coc(S(=O)(=O)N3CCOCC3)c2)o1	654

Compound	RP-LC retention time [s]
CCn1cc(-c2nc(C)c(C(=O)NCc3ccccc3)s2)c2cccnc21	784
Nc1ncnc(Nc2ccccc2Cl)c1[N+](=O)[O-]	777
Cc1ccc2nc(CNC(=O)Cn3nc(C(=O)N4CCCC4)c4ccccc43)[nH]c2c1	600
CN1CCN(CCCNC(=O)CCC(=O)N2CCCn3nc(-c4cn(C)c5ccccc45)cc32)CC1	583
CCSc1nnc(-c2nn(C)c3c2CN(S(=O)(=O)c2cccc(F)c2)CC3)n1CC	922
Cc1cc2c(cc1S(=O)(=O)N1CCCC1C(=O)NCc1ccccc1Cl)OCC(=O)N2 (centres undefined)	791
O=C(NCCCc1ccccc1)c1nc(Cn2c(=O)oc3ccccc32)no1	952
Cc1ccccc1CC(=O)NCC(=O)Nc1nc2ccccc2[nH]1	639
CCN1CCn2cc(S(=O)(=O)NCc3ccc(C)c(C)c3)cc2C1=O	761
O=C(Cn1ccc2ccc(N3CCOCC3)nc21)NCc1ccccc1Cl	905
CCCN(C)c1nccn2c(=O)n(CC(=O)Nc3ccc(F)cc3)nc12	806
COC(=O)c1nnn(-c2ccc(C)cc2)c1C(=O)OC	623
CN(C(=O)Cn1cnc2c(-c3ccc(Cl)cc3)csc2c1=O)c1ccc(F)cc1	1180
CN1CCN(C(=O)C2CCN(S(=O)(=O)c3ccc4c(c3)sc(=O)n4C)CC2)CC1	596
CC(C)(Oc1ccc(Cl)cc1)C(=O)NCCNc1cc(-n2cccn2)ncn1	814
Cc1ccc(NC(=O)N2CCN(c3cnn4cnnc4c3)CC2)cc1	627
O=c1c2cnc3nc(-c4ccccc4)nn3c2ccn1CCc1c[nH]c2ccc(F)cc12	941
CNC(=O)c1ccc(-c2nc3cc(NS(=O)(=O)c4ccccc4F)ccc3n2C)cc1	616
O=C(NCc1ccco1)C1CCN(c2nc3ccccc3nc2C(F)(F)F)CC1	1000
Cc1ccc(S(=O)(=O)N2CCC(C(=O)NC(C)C(=O)N3CCCc4ccccc43)CC2)cc1 (centres undefined)	902
Cc1oc2ccn(Cc3ccc(F)cc3)c(=O)c2c1C(=O)NCCN(C)C1CCCCC1	762
Cc1cc(=O)n(CC(=O)N2CCN(c3ccc(-c4ccccn4)nn3)CC2)cn1	531
CCn1ccc2sc(C)c(C(=O)N3CCN(c4ccc(OC)cc4)CC3)c2c1=O	714

Compound	RP-LC retention time [s]
O=C(Cn1nc2c3cc(-c4ccc(Cl)cc4)nn3ccn2c1=O)NC1CCCC1	1110
O=C(Cc1ccsc1)Nc1ccc(N2CCN(c3ccccc3)C2=O)nc1	811
CCS(=O)(=O)N1CCCCCC1c1ccccc1Cl (centres undefined)	1090
Cc1cc(C)cc(NC(=O)CSc2cc(N3CCCCC3)ncn2)c1	990
CN(C)C(=O)CN1CCN(c2cc(C(=O)O)c3cc(NC(=O)c4ccccc4F)ccc3n2)CC1	580
Cc1cccn2cc(-c3cccc(S(=O)(=O)N(C)C)c3)nc12	620
COc1ccc(-c2noc(Cn3ncn4nc(-c5ccc(F)cc5)cc4c3=O)n2)cc1OC	1000
CCN1CCCCc2cc(C(=O)NC(C)(C)C)sc21	1080
COCCN(Cc1ccsc1)C(=O)C1(c2cccs2)CCCC1	1070
CCC(C)NC(=O)C1CCCN(C(=O)Nc2ccc(NC(=O)Nc3ccccc3)cc2)C1 (centres undefined)	730
CCC(=O)NCc1nc2c(n1C)CN(S(=O)(=O)c1cccc(C(F)(F)F)c1)CC2	591
O=C(Nc1ccc(N2CCN(c3ccccc3)C2=O)nc1)C1CCC1	844
Cc1oc(C2CCN(C(=O)Nc3ccccc3Cl)CC2)nc1C(=O)N(C)C	691
CCCn1cc(S(=O)(=O)Nc2cccc(F)c2C)c2cccnc21	861
Cc1cccc(NC(=O)Cn2nc(N(C)C)c3ccccc3c2=O)c1C	849
Cc1cccc(CC(=O)NCC2CCN(Cc3ccccc3)CC2)c1	566
O=C(Nc1ccc(OCC(=O)N2CCN(c3cccc(Cl)c3)CC2)nc1)C1CC1	836
COC(=O)C1CCC(=O)N1C(c1ccc(OC)cc1)c1cc(OC)c(OC)c(OC)c1 (centres undefined)	753
Cc1cc(C(=O)NCC(C)C)c2cccc(Cl)c2n1	770
CCN1CCCn2nc(C3CCN(C(=O)COc4ccccc4)CC3)cc2C1=O	678
O=S(=O)(Cc1ccccc1)N1CCC(c2noc(-c3cnccn3)n2)C1 (centres undefined)	797
CCCn1c(CCNC(=O)c2cc(C)cc(C)c2)nc2cccnc21	716
CN1C(=O)c2cc(C(=O)NCc3ccc(F)cc3)nn2CC1(C)C(=O)NC1CCCCC1 (centres undefined)	791

Compound	RP-LC retention time [s]
Cc1ccc(NC(=O)c2nc3nc(C)cc(C(F)F)n3n2)c(C)c1	854
Cc1cc(NC(=O)C(C)Oc2ccc(-c3cnc4ccccc4n3)cc2)no1 (centres undefined)	890
Cc1ccccc1NS(=O)(=O)c1cc(-c2[nH]ncc2C(=O)N2CCOCC2)oc1C	678
CCn1cc(CCNC(=O)NC)c2cccnc21	561
Cc1cc(C2CCCN2C(=O)NC(C)(C)C)no1 (centres undefined)	752
CCCOc1ccc(CNC(=O)C2CCCN(c3ncnc4c3oc3ccccc34)C2)cc1 (centres undefined)	889
CCc1nn2c(=O)cc(CSc3nnc(-c4ccc5c(c4)OCO5)o3)nc2s1	743
COc1ccc(-c2c(C(=O)Nc3cc(OC)ccc3OC)nc3ccccn23)cc1	1030
O=C(O)c1ccc2c(c1)nc(Nc1cccc(Cl)c1)c1ccncc12	845
O=C(c1cc2ccccc2[nH]1)N1CCC(Cn2c(C(F)(F)F)nc3ccccc32)CC1	881
COc1cccc(-c2noc(Cn3c(=O)n(-c4ccccc4C)c(=O)c4sccc43)n2)c1	978
O=C(c1ccncc1)N1CCC(n2c(-c3ccco3)nc3cccnc32)C1 (centres undefined)	689
Cc1cc(N2CCN(C(=O)CCCc3c[nH]c4ccccc34)CC2)nc2ccccc12	696
CCCCC(=O)Nc1ccc2nc(N3CCN(CC)CC3)cc(C)c2c1	579
CC(C)c1ccc(-n2c3c(cc(C(=O)N4CCOCC4)c2=O)C(=O)CCC3)cc1	722
Cc1ccc(NC(=O)C2CCCN(S(=O)(=O)c3c[nH]c(C(=O)N4CCCC4)c3)C2)cc1F (centres undefined)	859
CCOc1ccc(-c2noc(Cn3ccn4nc(-c5ccccc5C)cc4c3=O)n2)cc1	1160
CCc1ccc2[nH]c3c(c(=O)c2c1)CN(CC(=O)NCc1ccc2c(c1)OCO2)CC3	624
COc1ccc2nc(C(=O)NCc3ccc(Cl)cc3)cn2n1	830
Cc1ccccc1N1CCN(C(=O)c2csc(C(=O)NC3CC3)n2)CC1	884
